Where a name gives a salt, the structure may show the parent alone.
What was measured:
[1] = diffusion/release of free (unencapsulated) BP through hemostat matrix, dialysis method; assay type: physicochemical; conditions: 1 mg free BP-HCl in 50 or 100 mg Gelfoam or Avitene; 1xPBS pH 7.2, 37° C.; over 24 hours
Method: FIG. 5 is a graphical representation of the release of unencapsulated BP from matrix material. 1 mg of free BP—HCl in 0.9 wt/vol % NaCl was combined with either Gelfoam® or Avitene™ (at either 50 mg or 100 mg of matrix) and monitored for release through the matrix over time. The samples were placed in dialysis tubing and submerged in 1×PBS (pH=7.2) at 37° C.
To test the diffusion of free BP (i.e., not encapsulated in microparticles) through the hemostat, the material (i.e., free BP mixed with hemostat) was submerged in physiological media and the released BP measured over time.
In vitro release studies were performed using a dialysis method. […]
UHPLC analysis of released BP was performed on a Waters (Milford, Mass.) ACQUITY UHPLC system equipped with a PDA detector set to 205 nm to quantify BP. […]
The acid form of BP was chromatographically separated on a Waters ACQUITY BEH C18 column (1.7 μm, 2.1×50 mm) by isocratic elution with 70% phosphate buffer/30% ACN at a flow rate of 0.60 mL/min. […] Calibration standards were analyzed and the peaks corresponding to BP were integrated, plotted against the concentration, and the calibration curve was calculated by linear least-squares regression without weighting. […]

[2] = single injection; cited from earlier work

release of free BP from the hemostat [1] | SMILES | complete elimination [2] [h] | time to maximum plasma drug concentration [2] [min]
majority of free BP was released | CCCCN1CCCCC1C(=O)Nc1c(C)cccc1C (stereo not drawn) [free BP, bupivacaine hydrochloride monohydrate] | – | –
– | CCCCN1CCCCC1C(=O)Nc1c(C)cccc1C (stereo not drawn) [bupivacaine] | 6 to 8 | 30 to 45
